Test results from patent US5948814A, “Genistein for the treatment of cystic fibrosis” (priority 1998, dated 1999).
Read-outs that look alike come from different tables or passages of the source.

Columns and labels:
[1] = biological target: ΔF508-CFTR (Homo sapiens, UniProt P13569, DEL508-508); assay: Forskolin-dependent I- efflux, NIH/3T3-ΔF508 cells
Protocol: FIG. 1 is a graph representing the dose-responses relationship for forskolin-dependent I^- efflux. Peak rates of I^- efflux in the presence (closed symbols) or absence (open symbols) of 50 μM genistein were obtained with NIH/3T3-cystic fibrosis transmembrane conductance regulator (NIH/3T3-CFTR) (circles) and NTH/3T3-Δphenylalanine 508 (ΔF508) cells (triangles). NIH/3T3-CFTR cells are cultured at 37° C. NIH/3T3-Δ508 cells are cultured at 27° C. for 3 days prior to assay. Data are mean values±SE (n>5). Lines were fit by nonlinear least squares.
FIG. 2 is a bar graph showing the effects of stimulation of ΔF508-CFTR by forskolin and genistein. Peak rates of I^- efflux were measured with NIH/3T3-ΔF508cells that were cultured at 37° C. (open bars) or at 27° C. for 3 days prior to assay (filled bars). I^- efflux was assayed without added agonist as a control and with 1 μM forskolin (fsk), 50 μM genistein (gen), or 1 μM forskolin plus 50 μM genistein (fsk+gen). Error bars are SE for n>7.
(§1) Cell culture: NIH/3T3-CFTR, NIH/3T3-ΔF508, and NIH/3T3 mock cells (generous gifts from Dr. Richard Mulligan of Children's Hospital and Medical Center, Harvard Medical School) were grown as described [Bradbury et al., 1992] at 37° C. and 5% CO2 in Dulbecco's modified Eagle's medium-H21 supplemented with 10% new-born calf serum, 4 mM glutamine, 25 mM glucose, 100 μg/ml penicillin, 100 μg/ml streptomycin, and 50 μg/ml gentamicin. Cells were maintained in T75 flasks, passaged at 90-95% confluency, and split one to four. For measurements of I^- efflux and in vivo phosphorylation, cells were seeded onto 35-mm dishes at […]. For patch-clamp experiments, cells were grown on coverglass chips in 35-mm culture dishes. Media were replaced 24 hours after plating and thereafter every 48 hours. In all cases, media were changed on the day before I^- efflux studies, NIH/3T3-ΔF508 cells were transferred to 27° C. three days before use, and 1 day prior to study, media were supplemented with 5 mM butyrate. For patch-clamp studies, where a constant level of functional ΔF508-CFTR was not essential, NIH/3T3-ΔF508 cells were cultured at 27° C. for 2-6 days before use. Calu-3 cells were grown and maintained as described by Hunter [1995].
I^- efflux: I^- efflux was measured as described previously [Reenstra et al., 1996]. Briefly, cells were incubated for 30 minutes with 37° C. I^- efflux buffer [(in mM) 141 NaCl, 4 KCl, 1 KH2 PO4, 0.9 MgCl2, 1.7 CaCl2. 10 N-2hydroxyethylpiperazine-N'-2-ethanesulfonic acid (HEPES), 25 glucose pH 7.4] containing 5 μCi/ml carrier-free ^125 I^- (sodium salt). Extracellular ^125 I^- was removed by washing four times with efflux buffer, and the rate of loss of intracellular ^125 I^- was determined by replacing the bathing solution with 37° C. efflux buffer every 60 seconds for 12 minutes. Time-dependent rates of ^125 I^- efflux are calculated from R=ln(^125 I^-t1 /^125 I^-t2)/(t1-t2), where ^125 I^-t is the intracellular ^125 I^- at time t and t1 and t2 are successive time points. Dose-response curves were obtained from peak rates of 125I^- efflux by nonlinear least squares fitting to R=[Ro +Rmx ·([fsk]/K1/2)]/[1+([fsk]/K1/2)], where Ro and Rmx are the rates of ^125 I efflux at zero and infinite concentration of forskolin (fsk), and K1/2 is the concentration of agonist that gives a half-maximal change.
To investigate effects of genistein on CFTR activity, the rates of I^- efflux were measured from stably transfected NIH/3T3 cells expressing wt- and ΔF508-CFTR (NIH/33-CFTR and NIH/3T3-ΔF508 cells, respectively). […] To increase ΔF508-CFTR channel activity, NIH/3T3-ΔF508 cells were cultured at 27° C. for 3 days [Denning et al., 1992].

[2] = tested on: mock-transfected NIH/3T3 cells; assay: I- efflux, mock-transfected NIH/3T3 cells; format: cell-based
Protocol: as §1
I^- efflux: I^- efflux was measured as described previously [Reenstra et al., 1996]. Briefly, cells were incubated for 30 minutes with 37° C. I^- efflux buffer [(in mM) 141 NaCl, 4 KCl, 1 KH2 PO4, 0.9 MgCl2, 1.7 CaCl2. […] Extracellular ^125 I^- was removed by washing four times with efflux buffer, and the rate of loss of intracellular ^125 I^- was determined by replacing the bathing solution with 37° C. efflux buffer every 60 seconds for 12 minutes. Time-dependent rates of ^125 I^- efflux are calculated from R=ln(^125 I^-t1 /^125 I^-t2)/(t1-t2), where ^125 I^-t is the intracellular ^125 I^- at time t and t1 and t2 are successive time points. […]
To investigate effects of genistein on CFTR activity, the rates of I^- efflux were measured from stably transfected NIH/3T3 cells expressing wt- and ΔF508-CFTR (NIH/33-CFTR and NIH/3T3-ΔF508 cells, respectively). […]

[3] = biological target: wt-CFTR (Homo sapiens, UniProt P13569); settings: for TC1 (short mean closed time) / TC2 (long mean closed time) / TO1 (mean open time) / TO2 (long mean open time): Table 1
Protocol: (A): continuous recordings, 4 minutes in length, of a cell-attached patch of wt-CFTR in the presence of 10 μM forskolin or 10 μM forskolin+50 μM genistein are shown. […] (B): dwell-time analysis of (A).
A continuous recording, 12 minutes in length, of cell-attached patch is shown. wt-CFTR was activated with 50 μM forskolin prior to start of trace and was present throughout recording Genistein (50 μM) was present as indicated.
Electrophysiology: CFTR channel currents were recorded at room temperature (~22° C.) with a patch-clamp amplifier (EPC-9, Heka Electronic), filtered at 100 Hz with a built-in three-pole Bessel filter, and stored on videotapes. Data were subsequently refiltered at 25 Hz with an eight-pole Bessel filter (Frequency Device, Havervill, Mass.) and captured onto a hard disk at a sampling rate of 50 Hz. […] Patch-clamp electrodes were made from Corning 7052 glass capillaries (Warner Instrument, Hammed, Conn.). The pipette resistance was usually 3-5 M.OMEGA., and the seal resistance was >20 G.OMEGA.. The pipette solution contained (in mM) 140 N-methyl-D-glucamine chloride (NMDG-C1), 2 MgCl2, 5Ca Cl2, and 10 HEPES (pH 7.4 with NMDG). The superfusion solution contained (in mM) 150 […], 2 MgCl2, 1 EGTA, 5 glucose, and 5 HEPES (pH 7.4 with NaOH). In excised inside-out patch experiments, the bath solution contained (in mM) 130 MNDG-Cl, 10 EGTA, 10 HEPES, 20 tetraethylammonium chloride, 8 Tris, and 2 MgCl2 (pH 7.4 with NMDG). Pipette potential was held at 50 mV relative to the bath. Downward deflections represent channel opening.
Statistics: Mean currents and variance were estimated with Igor (Wavemetrics, Lake Oswego, Oreg.). Parameters for mean current-variance relationships and dose-response curves were obtained from least-square fitting with Sigmaplot (Jandel, San Rafael, Calif.). Po was calculated from patches containing a single channel by dividing the […]. Dwell-time analysis was described previously [Baukrowitz et al., 1994]. Calculated values are presented as means±SE. Comparisons among data were made using the Student's t-test with P<0.05 considered significant.
To determine how genistein increases Po, the effects of genistein on single-channel kinetics were examined in cell-attached patches using dwell-time analysis. […] Both traces were recorded in the presence of 10 μM forskolin; 50 μM genistein was added prior to the start of the lower trace.

[4] = 50 nM forskolin and 60 μM genistein (so in the source)
[5] = 10 μM forskolin + 50 μM genistein
[6] = 50 nM forskolin, single exponential fit

wt-CFTR, sequence (P13569 whole entry): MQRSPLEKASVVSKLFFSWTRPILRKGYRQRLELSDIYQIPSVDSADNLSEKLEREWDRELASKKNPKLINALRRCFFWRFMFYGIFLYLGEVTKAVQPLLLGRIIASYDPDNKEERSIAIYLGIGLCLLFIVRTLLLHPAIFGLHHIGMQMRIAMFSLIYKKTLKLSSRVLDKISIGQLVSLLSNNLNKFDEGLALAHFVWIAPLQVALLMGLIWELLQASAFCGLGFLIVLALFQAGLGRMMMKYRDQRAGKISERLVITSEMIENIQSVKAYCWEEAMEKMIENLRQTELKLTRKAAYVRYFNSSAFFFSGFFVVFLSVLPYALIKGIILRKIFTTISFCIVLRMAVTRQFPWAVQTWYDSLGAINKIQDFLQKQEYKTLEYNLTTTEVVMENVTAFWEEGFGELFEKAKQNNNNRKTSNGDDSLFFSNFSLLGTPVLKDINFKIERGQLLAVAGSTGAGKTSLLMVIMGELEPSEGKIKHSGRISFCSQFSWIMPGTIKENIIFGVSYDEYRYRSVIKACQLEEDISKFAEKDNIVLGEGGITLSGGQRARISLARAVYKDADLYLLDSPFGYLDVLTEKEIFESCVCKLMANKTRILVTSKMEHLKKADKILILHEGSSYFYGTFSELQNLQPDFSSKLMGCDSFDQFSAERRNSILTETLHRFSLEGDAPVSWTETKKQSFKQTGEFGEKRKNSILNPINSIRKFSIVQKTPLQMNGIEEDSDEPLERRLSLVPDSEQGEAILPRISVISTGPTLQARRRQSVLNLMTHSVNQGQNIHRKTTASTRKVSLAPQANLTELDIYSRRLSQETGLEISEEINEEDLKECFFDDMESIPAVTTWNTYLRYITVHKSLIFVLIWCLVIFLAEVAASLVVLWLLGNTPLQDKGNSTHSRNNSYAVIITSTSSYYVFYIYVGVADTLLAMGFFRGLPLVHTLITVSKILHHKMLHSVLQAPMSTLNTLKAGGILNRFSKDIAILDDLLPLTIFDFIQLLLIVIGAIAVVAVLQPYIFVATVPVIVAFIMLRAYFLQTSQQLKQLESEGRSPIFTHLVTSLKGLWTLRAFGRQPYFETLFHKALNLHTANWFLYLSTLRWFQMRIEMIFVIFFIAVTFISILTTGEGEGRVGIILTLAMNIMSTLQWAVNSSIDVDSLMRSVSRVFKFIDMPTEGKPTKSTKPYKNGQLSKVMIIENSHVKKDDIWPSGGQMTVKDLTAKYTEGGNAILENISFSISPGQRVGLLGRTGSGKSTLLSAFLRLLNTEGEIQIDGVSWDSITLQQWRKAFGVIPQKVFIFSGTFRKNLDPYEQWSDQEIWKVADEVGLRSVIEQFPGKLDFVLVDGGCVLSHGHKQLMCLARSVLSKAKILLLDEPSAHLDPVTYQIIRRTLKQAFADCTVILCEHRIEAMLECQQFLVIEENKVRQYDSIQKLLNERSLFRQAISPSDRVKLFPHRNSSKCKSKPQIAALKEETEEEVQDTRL
ΔF508-CFTR, sequence (P13569 with tags, fused parts or gaps DEL508-508): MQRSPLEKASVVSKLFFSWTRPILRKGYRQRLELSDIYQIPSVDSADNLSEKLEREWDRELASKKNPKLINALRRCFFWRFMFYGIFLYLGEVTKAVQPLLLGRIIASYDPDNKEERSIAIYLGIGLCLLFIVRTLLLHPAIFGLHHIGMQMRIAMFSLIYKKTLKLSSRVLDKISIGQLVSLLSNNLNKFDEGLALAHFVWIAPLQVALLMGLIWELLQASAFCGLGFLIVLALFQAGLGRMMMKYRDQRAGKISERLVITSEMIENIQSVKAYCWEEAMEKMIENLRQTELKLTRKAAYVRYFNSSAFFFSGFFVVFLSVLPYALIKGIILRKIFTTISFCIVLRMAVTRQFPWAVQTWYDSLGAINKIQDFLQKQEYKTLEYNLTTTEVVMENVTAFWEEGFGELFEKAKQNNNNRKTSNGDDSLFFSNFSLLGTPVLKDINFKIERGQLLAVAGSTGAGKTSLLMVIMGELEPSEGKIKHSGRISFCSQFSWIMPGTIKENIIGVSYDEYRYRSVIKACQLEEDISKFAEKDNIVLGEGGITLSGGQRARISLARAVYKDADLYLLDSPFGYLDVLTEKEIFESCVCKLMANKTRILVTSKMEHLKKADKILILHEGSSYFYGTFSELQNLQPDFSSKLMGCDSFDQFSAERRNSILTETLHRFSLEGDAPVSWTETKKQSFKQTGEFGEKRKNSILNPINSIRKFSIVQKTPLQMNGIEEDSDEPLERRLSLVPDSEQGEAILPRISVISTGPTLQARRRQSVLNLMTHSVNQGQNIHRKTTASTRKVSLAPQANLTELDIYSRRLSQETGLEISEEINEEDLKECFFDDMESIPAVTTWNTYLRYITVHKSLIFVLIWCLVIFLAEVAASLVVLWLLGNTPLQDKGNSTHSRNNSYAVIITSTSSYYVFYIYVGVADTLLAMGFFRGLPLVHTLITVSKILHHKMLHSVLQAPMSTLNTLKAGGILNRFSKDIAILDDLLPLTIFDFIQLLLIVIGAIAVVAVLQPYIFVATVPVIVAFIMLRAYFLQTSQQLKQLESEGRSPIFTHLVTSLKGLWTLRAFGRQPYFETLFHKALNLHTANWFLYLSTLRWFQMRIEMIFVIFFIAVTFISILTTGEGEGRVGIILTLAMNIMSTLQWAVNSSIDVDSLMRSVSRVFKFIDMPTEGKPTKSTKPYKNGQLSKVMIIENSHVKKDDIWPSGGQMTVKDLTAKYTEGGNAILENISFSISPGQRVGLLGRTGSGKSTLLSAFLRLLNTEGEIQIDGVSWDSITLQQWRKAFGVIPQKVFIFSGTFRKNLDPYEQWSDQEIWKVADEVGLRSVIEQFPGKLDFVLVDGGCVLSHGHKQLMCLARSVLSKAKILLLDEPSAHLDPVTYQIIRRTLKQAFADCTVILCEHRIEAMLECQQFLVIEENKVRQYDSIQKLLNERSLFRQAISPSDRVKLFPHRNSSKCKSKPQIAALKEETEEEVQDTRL

SMILES: O=c1c(-c2ccc(O)cc2)coc2cc(O)cc(O)c12 [Genistein, 4',5,7-trihydroxyisoflavone]
- increase of the maximal forskolin-dependent I- efflux response by genistein ([1]; 50 μM genistein, cells cultured at 27° C. for 3 days): 3.7±0.4 fold
- stimulation of I- efflux in mock cells ([2]; 50 μM genistein): neither 1 μM forskolin, 50 μM genistein, nor 50 μM genistein plus 1 μM forskolin stimulated
- stimulation of I- efflux in mock cells ([2]; 50 μM genistein plus 1 μM forskolin): neither 1 μM forskolin, 50 μM genistein, nor 50 μM genistein plus 1 μM forskolin stimulated
- increase in Po by genistein ([3]; 50 nM forskolin): > 10 fold
- mean closed time [3, 4]: ~ 2.5 seconds
- mean open time [3, 4]: ~ 3.0 seconds
- open probability Po ([3]; 50 nM forskolin plus 50 μM genistein): 0.79
- open probability Po ([3]; 10 μM forskolin plus 50 μM genistein, four channels): 0.71±0.06
- TC1 (short mean closed time) [3, 5]: 0.49 ± 0.08
- TC2 (long mean closed time) [3, 5]: 3.76 ± 1.09
- TO1 (mean open time) [3, 5]: 0.28 ± 0.11
- TO2 (long mean open time) ([3]; 10 μM forskolin + 50 μM genistein, significant, <0.05): 2.10 ± 0.30
- effect on long closed time ([3]; wt-CFTR, FIG. 7): dramatically decreases the long closed time

SMILES: C=C[C@@]1(C)CC(=O)[C@]2(O)[C@@]3(C)[C@@H](O)CCC(C)(C)[C@@H]3[C@H](O)[C@H](OC(C)=O)[C@@]2(C)O1 [forskolin]
- EC50 [1]: 670 ± 260 nM
- stimulation of mutant ΔF508-CFTR [1]: had little affect on mutant ΔF508-CFTR
- maximal fold induction ([1]; mouse, read-out: maximal forskolin-dependent increase in I- efflux): 1.65 ± 0.08
- EC50 ([1]; read-out: K1/2 of forskolin for I- efflux in presence of genistein, with 50 μM genistein, cells cultured at 27° C. for 3 days): 16 ± 5 nM
- activation at 10 µM ([1]; read-out: increase of I- efflux): < 15%
- stimulation of I- efflux in mock cells ([2]; 1 μM forskolin): neither 1 μM forskolin, 50 μM genistein, nor 50 μM genistein plus 1 μM forskolin stimulated
- TC2 ([3]; 50 nM forskolin): ~ 22 seconds
- open probability Po ([3]; 50 nM forskolin): 0.07
- mean closed time [3, 6]: ~ 22 seconds
- mean open time [3, 6]: ~ 0.9 seconds
- TC2 ([3]; 10 μM forskolin): ~ 3 seconds
- open probability Po ([3]; 10 μM forskolin, four channels): 0.27±0.03
- TC1 (short mean closed time) ([3]; 10 μM forskolin): 0.39 ± 0.11
- TC2 (long mean closed time) ([3]; 10 μM forskolin): 2.98 ± 0.81
- TO1 (mean open time) ([3]; 10 μM forskolin): 0.24 ± 0.01
- TO2 (long mean open time) ([3]; 10 μM forskolin): 0.88 ± 0.09
- increase of long closed time on reducing forskolin ([3]; forskolin reduced from 10 μM to 50 nM): ~ 10 fold
